In EP2100593B1, “Ternary mixtures with increased collagen synthesis” (Symrise AG, priority 2008, dated 2009):
Where “and” joins values, the source holds several entries; their conditions need not be identical. Identical values can stand only once.

System: Normal Humane Dermalen Fibroblasten (NHDF)
Assay: Collagen synthesis stimulation in aged NHDF monolayer culture, Sirius Red staining (OD 540 nm)
Type: cell-based, Human
Conditions: 48 h incubation
Excerpt: Verantwortlich für die Collagensynthese in der Dermis-Schicht der Haut sind Fibroblasten. Als Testsystem werden Normal Humane Dermalen Fibroblasten (NHDF) in einer so genannten Monolayer-Kultur in 96-Well-MTPs kultiviert, über einen definierten Zeitraum mit Testsubstanzen inkubiert und anschließend die Collagenzunahme […] über eine Färbemethode bestimmt.
Das Assay-Prinzip basiert auf der histologischen, spezifischen Anfärbung von löslichem Collagen (vorwiegend Collagen Typ I und III) mit Hilfe des Farbstoffes Sirius Red (Direct Red 80). Sirius Red ist ein anionischer Farbstoff an dessen Seitenketten Sulphonsäuregruppen angelagert sind. Diese Sulphonsäuregruppen reagieren mit den Seitenkettengruppen der im Collagen vorwiegend vorkommenden Aminosäuren (Prolin, Hydroxyprolin, Lysin und Hydroxylysin), wobei eine intakte Collagenstruktur gegeben sein muss. [drawing 1]
Als Vorlage für das Assay-Design dient die bei B.J.Walsh et al., Analytical Biochemistry 203, 187-190 (1992) beschriebene Vorgehensweise zur quantitativen Bestimmung von Collagen im 96-Well Maßstab.
Die Collagensynthese steigernde Wirkung der Testsubstanzen wird an in vitro gealterten (>8. Passage) NHDF in 96-Well Mikrotiterplatten (2*10^4 Zellen pro Well) getestet. Für jedes Prüfmuster muss zuvor ein geeignetes Lösungsmittel ermittelt werden, in dem eine Stocklösung des Prüfmusters angesetzt wird. Die Inkubationslösungen der Testsubstanzen werden anschließend in mit 0,2% BSA supplementiertem DMEM hergestellt. Mögliche Lösungsmittel sollten in allen Verdünnung der Inkubationslösung max. 0,2 %ig vorliegen. Die maximale Einsatzkonzentration der Testsubstanzen resultiert aus den in der Zytotoxizitäts-Untersuchung (Resazurin-Assay an 3T3 Maus Fibroblasten) gewonnen IC20-Werten und ist auf 0,1*IC20 festgelegt.
Nach einer 24h-igen Adaptionsphase der NHDF werden die Zellen für 48 h mit den Inkubationslösungen und entsprechenden Kontroll-Lösungen (Lösungsmittel und Blank) inkubiert (37°C, 5% CO2). […]

[1] = Tabelle 2, Einsatzkonzentration 1.020 mg/ml

O=C1O[C@H]([C@@H](O)CO)C([O-])=C1OP(=O)([O-])[O-].O=C1O[C@H]([C@@H](O)CO)C([O-])=C1OP(=O)([O-])[O-].[Mg+2].[Mg+2].[Mg+2] [Magnesium Ascorbylphosphat (Bio1300/1), Magnesium Ascorbylphosphat]
Collagensynthese Steigerung [%], bezogen auf unbehandelte Kontrolle [1]: 141.13%

O=C1O[C@H]([C@@H](O)CO)C(O)=C1OP(=O)(O)O [Magnesium Ascorbylphosphat (Bio172), Magnesium Ascorbylphosphat]
Collagensynthese Steigerung [%], bezogen auf unbehandelte Kontrolle (Tabelle 1, Einsatzkonzentration 0.362 mg/ml): 66.97% and 67.44%

O=C1O[C@H]([C@@H](O)CO)C([O-])=C1OP(=O)([O-])[O-].[Na+].[Na+].[Na+] [Natrium Ascorbylphosphat (Bio1586), Natrium Ascorbylphosphat]
Collagensynthese Steigerung [%], bezogen auf unbehandelte Kontrolle [1]: 144.57%
